{
  "source": "paper PMC6043372",
  "about": "(Journal of medicinal chemistry, 2018)",
  "system": "Mtb H37Rv",
  "type": "cell-based, Mycobacterium tuberculosis H37Rv",
  "note": "Like-named read-outs stand apart in the source and are kept apart here.",
  "data": [
    {"smiles": "CCCCCCCCn1cc(CN2CCC3(CC2)OCCCO3)c2ccc(OC)cc21", "note": "[Compound 12]", "values": [
      {"measurement": "spontaneous resistance mutation frequency", "value": "10^−8 /CFU"}
    ]},
    {"smiles": "CCCCCCCCn1cc(CN2CCCCCC2)c2c(F)cccc21", "note": "[Compound 71, 3-(azepan-1-ylmethyl)-4-fluoro-1-octyl-1H indole]", "values": [
      {"measurement": "spontaneous resistance mutation frequency", "setting": "Mtb H37Rv, 12 at 4× and 8× MIC90", "value": "< 10^−9 /CFU"}
    ]}
  ]
}
